pIC50: −log10 of the molar value. Like-named read-outs stand apart in the source and are kept apart here.
Columns and labels:
c-kit = biological target: T1, c-kit (Homo sapiens, UniProt P10721); assay: Inhibitory activity against c-kit autophosphorylation (MO7e cells, h-SCF); assay type: cell-based; settings: for inhibition at 1 µM: Mo7e, at 1000 nM
T1 construct: MO7e (human megakaryocytic leukemia cell line) which had been arrested for 20 hr; endogenous in cells; host or cells: MO7e human megakaryocytic leukemia cell line
T1 sequence (P10721 26-976): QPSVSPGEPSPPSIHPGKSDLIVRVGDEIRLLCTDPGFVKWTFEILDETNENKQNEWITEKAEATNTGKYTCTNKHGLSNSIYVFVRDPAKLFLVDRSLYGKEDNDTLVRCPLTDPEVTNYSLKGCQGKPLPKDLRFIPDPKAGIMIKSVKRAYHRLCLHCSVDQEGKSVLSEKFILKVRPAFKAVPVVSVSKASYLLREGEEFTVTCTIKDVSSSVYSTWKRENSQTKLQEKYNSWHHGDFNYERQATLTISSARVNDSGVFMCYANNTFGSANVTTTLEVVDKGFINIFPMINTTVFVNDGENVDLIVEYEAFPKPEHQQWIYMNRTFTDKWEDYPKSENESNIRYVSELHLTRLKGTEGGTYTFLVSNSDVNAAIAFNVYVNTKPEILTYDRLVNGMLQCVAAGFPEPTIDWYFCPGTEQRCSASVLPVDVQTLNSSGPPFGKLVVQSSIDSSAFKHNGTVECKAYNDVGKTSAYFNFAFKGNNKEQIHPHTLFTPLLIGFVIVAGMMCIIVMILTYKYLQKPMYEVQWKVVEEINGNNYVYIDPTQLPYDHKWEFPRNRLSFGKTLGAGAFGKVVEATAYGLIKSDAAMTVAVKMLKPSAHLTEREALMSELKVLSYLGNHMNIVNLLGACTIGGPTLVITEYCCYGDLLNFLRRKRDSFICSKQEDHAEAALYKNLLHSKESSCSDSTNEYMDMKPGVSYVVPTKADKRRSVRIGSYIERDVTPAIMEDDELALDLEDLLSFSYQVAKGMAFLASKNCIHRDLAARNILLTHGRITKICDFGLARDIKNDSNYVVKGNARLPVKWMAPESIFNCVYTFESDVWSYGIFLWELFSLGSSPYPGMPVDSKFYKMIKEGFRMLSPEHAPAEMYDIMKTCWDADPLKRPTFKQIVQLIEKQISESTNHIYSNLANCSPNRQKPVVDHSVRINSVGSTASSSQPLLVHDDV
How it was run: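 In this cellular autophosphorylation assay, compound-treated MO7e cells (1 hr) were challenged with human stem cell factor at 50 ng/ml for 5 min; detection relied on PY-20 capture and anti-c-kit/HRP immunodetection at 450 nm.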

PDGF-Ra = biological target: T2, PDGF-Ra (Homo sapiens, UniProt P16234); assay: Inhibitory activity against PDGF-Ra phosphorylation by PDGF-AA stimulation using G292; assay type: cell-based; settings: for pIC50: > means inhibition at indicated concentration not more than 50%, < and << not less than 50%, read-out: PDGF (E) IC50; for inhibition at 0.1 µM: G292, at 100 nM, read-out: PDGF (E) inhibition (%) at 100 nM
T2 construct: host or cells: G-292 human osteosarcoma cells
T2 sequence (P16234 24-1089): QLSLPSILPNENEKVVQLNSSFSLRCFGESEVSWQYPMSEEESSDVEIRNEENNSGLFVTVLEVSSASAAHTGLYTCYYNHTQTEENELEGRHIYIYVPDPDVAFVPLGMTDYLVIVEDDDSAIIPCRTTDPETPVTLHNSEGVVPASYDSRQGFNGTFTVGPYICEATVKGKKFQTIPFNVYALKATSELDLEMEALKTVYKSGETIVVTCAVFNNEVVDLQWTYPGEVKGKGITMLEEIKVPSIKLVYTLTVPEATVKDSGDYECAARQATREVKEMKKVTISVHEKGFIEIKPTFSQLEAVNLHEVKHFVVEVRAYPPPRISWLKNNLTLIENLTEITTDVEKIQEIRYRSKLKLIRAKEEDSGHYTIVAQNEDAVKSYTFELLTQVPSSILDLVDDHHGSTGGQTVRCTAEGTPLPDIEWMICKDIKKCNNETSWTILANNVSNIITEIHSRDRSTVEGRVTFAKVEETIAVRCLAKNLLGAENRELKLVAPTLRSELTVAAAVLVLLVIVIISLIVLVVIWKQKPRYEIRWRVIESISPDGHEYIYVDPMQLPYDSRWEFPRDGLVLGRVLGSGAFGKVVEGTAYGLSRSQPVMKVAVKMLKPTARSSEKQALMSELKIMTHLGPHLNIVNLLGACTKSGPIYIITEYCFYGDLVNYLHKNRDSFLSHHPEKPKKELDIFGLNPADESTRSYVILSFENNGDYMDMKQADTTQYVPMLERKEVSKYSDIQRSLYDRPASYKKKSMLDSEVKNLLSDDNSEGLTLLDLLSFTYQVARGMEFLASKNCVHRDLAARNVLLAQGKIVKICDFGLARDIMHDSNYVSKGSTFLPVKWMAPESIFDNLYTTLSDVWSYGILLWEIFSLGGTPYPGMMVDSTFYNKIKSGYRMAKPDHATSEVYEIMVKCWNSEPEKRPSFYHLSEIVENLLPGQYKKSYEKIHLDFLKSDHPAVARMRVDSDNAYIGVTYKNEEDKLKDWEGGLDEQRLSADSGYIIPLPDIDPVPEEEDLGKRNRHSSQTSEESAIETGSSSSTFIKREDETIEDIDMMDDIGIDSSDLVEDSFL
How it was run: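 Cells seeded in low-serum medium are exposed to test compound for one hour, then PDGF-AA (50 ng/ml) triggers receptor phosphorylation for 5 min at 37 °C. Phospho-PDGF-Ra in solubilized cells is quantified by anti-phosphotyrosine capture ELISA at 450 nm.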

[1] = MO7e cells, 50 ng/ml h-SCF, read-out: c-kit IC50
[2] = MO7e cells, h-SCF 50 ng/ml, read-out: c-kit IC50
[3] = figure within parentheses in −( ) or >1000( )
[4] = MO7e cells, h-SCF stimulation, read-out: c-kit IC50
[5] = figure within parentheses in >100( )

| Compound | pIC50 (PDGF-Ra) | pIC50 (c-kit; [2]) | pIC50 (PDGF-Ra; Pharmacological Test Example 1) | other results |
| --- | --- | --- | --- | --- |
| COc1cc2nccc(Oc3ccc(NC(=S)NC(=O)N(CCCl)CCCl)cc3)c2cc1OC [Example 1042, N-{4-[(6,7-Dimethoxy-4-quinolyl)oxy]phenyl}-[{[di(2-chloroethyl)amino]carbonyl}amino]methanethioamide] | 7.41 | – | – | pIC50 (c-kit; c-kit IC50, MO7e cells, h-SCF stimulation): 6.97 |
| COc1cc2ncnc(Oc3ccc(NC(=O)NC4CCN(Cc5ccccc5C)C4)cc3)c2cc1OC (stereo not shown) [Example 569, N-{4-[(6,7-Dimethoxy-4-quinazolinyl)oxy]phenyl}-N′-[1-(2-methylbenzyl)tetrahydro-1H-3-pyrrolyl]urea] | 7.92 | – | – | pIC50 (c-kit; [1]): 6.77 |
| COc1cc2nccc(Oc3ccc(NC(=O)OCC4CCC4)cc3)c2cc1OC [Example 385, Cyclobutylmethyl N-{4-[(6,7-dimethoxy-4-quinolyl)oxy]phenyl}carbamate] | – | 7.06 | > 8.00 | – |
| CCOc1ccc(C(=O)NC(=S)Nc2ccc(Oc3ncnc4cc(OC)c(OC)cc34)cc2)cc1 [Example 716, N-{4-[(6,7-Dimethoxy-4-quinazolinyl)oxy]phenyl}-N′-(4-ethoxybenzoyl)thiourea] | 7.96 | – | – | inhibition at 1 µM (c-kit; [3]): 19% |
| COc1cc2ncnc(Oc3ccc(NC(=O)NC4CCN(CC5CCCCC5)C4)c([N+](=O)[O-])c3)c2cc1OC (stereo not shown) [Example 587, N-[1-(Cyclohexylmethyl)tetrahydro-1H-3-pyrrolyl]-N′-{4-[(6,7-dimethoxy-4-quinazolinyl)oxy]-2-nitrophenyl}urea] | 7.17 | – | – | inhibition at 1 µM (c-kit; [3]): 16% |
| COc1cc2nccc(Oc3ccc(NC(=S)NC(=O)c4ccc(C)cc4C)cc3)c2cc1OC [Example 1003, N-{4-[(6,7-Dimethoxy-4-quinolyl)oxy]phenyl}-N′-(2,4-dimethylbenzoyl)thiourea] | 7.62 | – | – | pIC50 (c-kit; [4]): 6.20 |
| CCCCN(CCCC)CCNC(=O)Nc1ccc(Oc2ccnc3cc(OC)c(OC)cc23)cc1OC [Example 689, N-[2-(Dibutylamino)ethyl]-N′-{4-[(6,7-dimethoxy-4-quinolyl)oxy]-2-methoxyphenyl}urea] | < 7.00 | – | – | pIC50 (c-kit; [1]): 6.24; inhibition at 0.1 µM (PDGF-Ra; [5]): 42% |
| COc1cc2nccc(Oc3cc(C)c(NC(=O)OCCCOc4cccc(F)c4)cc3C)c2cc1OC [Example 149, 3-(3-Fluorophenoxy)propyl N-{4-[(6,7-dimethoxy-4-quinolyl)oxy]-2,5-dimethylphenyl}carbamate] | – | 7.31 | 7.72 | – |
| COc1ccc(OC)c(COC(=O)Nc2cc(C)c(Oc3ccnc4cc(OC)c(OC)cc34)cc2C)c1 [Example 69, 2,5-Dimethoxybenzyl N-{4-[(6,7-dimethoxy-4-quinolyl)oxy]-2,5-dimethylphenyl}carbamate] | – | 6.12 | 7.28 | – |
| COc1cc2nccc(Oc3ccc(NC(=O)OCCCN4CCN(C)CC4)cc3)c2cc1OC [Example 424, 3-(4-Methylpiperazino)propyl N-{4-[(6,7-dimethoxy-4-quinolyl)oxy]phenyl}carbamate] | 7.33 | – | – | pIC50 (c-kit; [1]): 6.65 |
| COc1cc2ncnc(Oc3ccc(NC(=O)OCCCOc4ccc(F)cc4)cc3)c2cc1OC [Example 155, 3-(4-Fluorophenoxy)propyl N-{4-[(6,7-dimethoxy-4-quinazolinyl)oxy]phenyl}carbamate] | – | 7.39 | 7.85 | – |
| COc1cc2nccc(Oc3cc(C)c(NC(=O)OCc4ccc(C(F)(F)F)cc4)cc3C)c2cc1OC [Example 23, 4-(Trifluoromethyl)benzyl N-{4-[(6,7-dimethoxy-4-quinolyl)oxy]-2,5-dimethylphenyl}carbamate] | – | 6.32 | > 8.00 | – |
| COc1cc2ncnc(Oc3ccc(N(C)C(=O)OC4CCCCC4)c(Cl)c3)c2cc1OC [Example 474, Cyclohexyl N-{2-chloro-4-[(6,7-dimethoxy-4-quinazolinyl)oxy]phenyl}-N-methylcarbamate] | 7.34 | – | – | inhibition at 1 µM (c-kit; [3]): 6% |
| CCCC(CC)OC(=O)Nc1ccc(Oc2ncnc3cc(OC)c(OC)cc23)cc1Cl (stereo not shown) [Example 338, 1-Ethylbutyl N-{2-chloro-4-[(6,7-dimethoxy-4-quinazolinyl)oxy]phenyl}carbamate] | – | 6.02 | 7.60 | – |
| CCOc1ccccc1C(C)OC(=O)Nc1ccc(Oc2ncnc3cc(OC)c(OC)cc23)cc1Cl (stereo not shown) [Example 131, 1-(2-Ethoxyphenyl)ethyl N-{-chloro-4-[(6,7-dimethoxy-4-quinazolinyl)oxy]phenyl}carbamate] | – | – | 7.42 | inhibition at 1 µM (c-kit; figure in parentheses in −( )): 40% |
| COc1cccc(OC(=O)Nc2ccc(Oc3ccnc4cc(OC)c(OC)cc34)c(C)c2C)c1 [Example 291, 3-Methoxyphenyl N-{4-[(6,7-dimethoxy-4-quinolyl)oxy]-2,3-dimethylphenyl}carbamate] | – | 6.91 | 7.59 | – |
| COc1cc2ncnc(Oc3ccc(NC(=O)OC4CCCCCC4)c(Cl)c3)c2cc1OC [Example 343, Cycloheptyl N-{2-chloro-4-[(6,7-dimethoxy-4-quinazolinyl)oxy]phenyl}carbamate] | – | 6.63 | > 8.00 | – |
| CCCC(CCN1CCN(C)CC1)OC(=O)Nc1ccc(Oc2ccnc3cc(OC)c(OC)cc23)cc1 (stereo not shown) [Example 449, 1-[2-(4-Methylpiperazino)ethyl]butyl N-{4-[(6,7-dimethoxy-4-quinolyl)oxy]phenyl}carbamate] | < 7.00 | – | – | pIC50 (c-kit; [1]): 6.13; inhibition at 0.1 µM (PDGF-Ra; [5]): 26% |
| COc1cc2nccc(Oc3ccc(N(C)C(=O)OCC4CCCCCC4)cc3)c2cc1OC [Example 483, Cycloheptylmethyl N-{4-[(6,7-dimethoxy-4-quinolyl)oxy]phenyl}-N-methylcarbamate] | 7.70 | – | – | pIC50 (c-kit; [1]): > 7.52 |
| COc1cc2nccc(Oc3cc(C)c(NC(=O)OCc4cccc(C)c4)cc3C)c2cc1OC [Example 254, 3-Methylbenzyl N-{4-[(6,7-dimethoxy-4-quinolyl)oxy]-2,5-dimethylphenyl}carbamate] | – | 6.40 | < 7.00 | inhibition at 0.1 µM (PDGF-Ra; figure in parentheses in >100( )): 27% |
| COc1ccccc1COC(=O)N(C)c1ccc(Oc2ncnc3cc(OC)c(OC)cc23)cc1Cl [Example 478, 2-Methoxybenzyl N-{2-chloro-4-[(6,7-dimethoxy-4-quinazolinyl)oxy]phenyl}-N-methylcarbamate] | 7.77 | – | – | inhibition at 1 µM (c-kit; [3]): 28% |
| COc1cc2ncnc(Oc3ccc(NC(=S)NC(=O)c4ccccc4C)c(N4CCOCC4)c3)c2cc1OC [Example 1151, N-{4-[(6,7-Dimethoxy-4-quinazolinyl)oxy]-2-morpholinophenyl}-N′-(2-methylbenzoyl)thiourea] | > 8.00 | – | – | pIC50 (c-kit; [4]): 6.84 |
| COc1cc2ncnc(Oc3ccc(NC(=S)NC(=O)CCc4ccc(C)cc4)cc3)c2cc1OC [Example 722, N-{4-[(6,7-Dimethoxy-4-quinazolinyl)oxy]phenyl}-N′-[3-(4-methylphenyl)propanoyl]thiourea] | > 8.00 | – | – | pIC50 (c-kit; [1]): 7.07 |
| COc1cc2nccc(Oc3ccc(NC(=O)OCCCSc4ccc(Cl)cc4C)cc3)c2cc1OC [Example 77, 3-[(4-Chloro-2-methylphenyl)sulfanyl]propyl N-{4-[(6,7-dimethoxy-4-quinolyl)oxy]phenyl}carbamate] | – | 7.00 | > 8.00 | – |
| COc1cc(Oc2ccnc3cc(OC)c(OC)cc23)ccc1NC(=O)NN1CCCCC1 [Example 598, N-{4-[(6,7-Dimethoxy-4-quinolyl)oxy]-2-methoxyphenyl}-N′-(1-piperidinyl)urea] | 7.72 | – | – | pIC50 (c-kit; [1]): 6.37 |
| COc1cc2ncnc(Oc3ccc(NC(=O)OCc4ccccc4C)c(Cl)c3)c2cc1OC [Example 320, 2-Methylbenzyl N-{2-chloro-4-[(6,7-dimethoxy-4-quinazolinyl)oxy]phenyl}carbamate] | – | 6.22 | > 8.00 | – |
| COc1cc2nccc(Oc3ccc(NC(=S)NC(=O)N4CCc5ccccc5C4)cc3)c2cc1OC [Example 1130, N-{4-[(6,7-Dimethoxy-4-quinolyl)oxy]phenyl}-N′-(1,2,3,4-tetrahydro-2-isoquinolylcarbonyl)thiourea] | > 8.00 | – | – | pIC50 (c-kit; [4]): 6.26 |
| COc1cc2nccc(Oc3cc(C)c(NC(=S)NCCCN4CCN(C)CC4)cc3C)c2cc1OC [Example 556, N-{4-[(6,7-Dimethoxy-4-quinolyl)oxy]-2,5-dimethylphenyl}-N′-[3-(4-methylpiperazinyl)propyl]thiourea] | < 7.00 | – | – | inhibition at 1 µM (c-kit; [3]): 28%; inhibition at 0.1 µM (PDGF-Ra; [5]): 13% |
| COc1cc2ncnc(Oc3ccc(NC(=O)OC(C)c4ccccc4Cl)c(Cl)c3)c2cc1OC (stereo not shown) [Example 16, 1-(2-Chlorophenyl)ethyl N-{2-chloro-4-[(6,7-dimethoxy-4-quinazolinyl)oxy]phenyl}carbamate] | – | 6.31 | > 8.00 | – |
| COc1cc2nccc(Oc3ccc(NC(=O)N[C@@H]4CCN(Cc5ccccc5)C4)cc3)c2cc1OC [Example 564, N-[(3R)-1-Benzyltetrahydro-1H-3-pyrrolyl]-N′-{4-[(6,7-dimethoxy-4-quinolyl)oxy]phenyl}urea] | 7.41 | – | – | pIC50 (c-kit; [1]): 6.54 |

From US7135466B2 (Kirin Beer Kabushiki Kaisha, priority 1999, dated 2006)
